Source: ChEMBL document CHEMBL5634175, “Genome-Driven Discovery of Hygrocins in Streptomyces rapamycinicus” (2024)

Experiments:
Assay type in all cases: functional
Staphylococcus aureus = test: Antibacterial activity against Staphylococcus aureus 8325 incubated for 12 hrs by broth microdilution method
Bacillus subtilis = test: Antibacterial activity against Bacillus subtilis incubated for 12 hrs by broth microdilution method
Pseudomonas aeruginosa = test: Antibacterial activity against Pseudomonas aeruginosa PAO1 incubated for 12 hrs by broth microdilution method
Candida albicans = test: Antifungal activity against Candida albicans IBT 656 incubated for 24 hrs by broth microdilution method

Measured: MIC

CC[C@@H](/C=C/[C@H](O)[C@H](C)OC(=O)/C(C)=C\[C@@H]1C(=O)NC2=CC(=O)c3cc(O)c(C)cc3[C@]21O)CCC(=O)O
> 50 µg/mL: Staphylococcus aureus | Bacillus subtilis | Pseudomonas aeruginosa | Candida albicans

CC[C@@H](/C=C/[C@H](OC(=O)/C(C)=C\[C@H]1C(=O)NC2=CC(=O)c3cc(O)c(C)cc3[C@@]21O)[C@H](C)O)CCC(=O)O
> 50 µg/mL: Staphylococcus aureus | Bacillus subtilis | Pseudomonas aeruginosa | Candida albicans

CC[C@H]1/C=C/[C@H](O)[C@@H](C)OC(=O)/C(C)=C\CC(=O)Nc2cc(O)cc3c2O[C@@]2(CC1)CC(=O)[C@H](C)[C@H]3O2
> 50 µg/mL: Staphylococcus aureus | Bacillus subtilis | Pseudomonas aeruginosa | Candida albicans

CC[C@@H](/C=C/[C@H](OC(=O)/C(C)=C\[C@@H]1C(=O)NC2=CC(=O)c3cc(O)c(C)cc3[C@]21O)[C@H](C)O)CCC(=O)O
> 50 µg/mL: Staphylococcus aureus | Bacillus subtilis | Pseudomonas aeruginosa | Candida albicans

CC[C@H]1/C=C/[C@@H]([C@@H](C)O)OC(=O)/C(C)=C\CC(=O)Nc2cc(O)cc3c2O[C@@]2(CC1)CC(=O)[C@@H](C)[C@@H]3O2
> 50 µg/mL: Staphylococcus aureus | Bacillus subtilis | Pseudomonas aeruginosa | Candida albicans

CC[C@@H](/C=C/[C@H](OC(=O)/C(C)=C\C1=C2C(=CC(=O)c3cc(O)c(C)cc32)NC1=O)[C@H](C)O)CCC(=O)O
> 50 µg/mL: Staphylococcus aureus | Bacillus subtilis | Pseudomonas aeruginosa | Candida albicans

CC[C@@H](/C=C/[C@H](O)[C@H](C)OC(=O)/C(C)=C\C1=C2C(=CC(=O)c3cc(O)c(C)cc32)NC1=O)CCC(=O)O
> 50 µg/mL: Staphylococcus aureus | Bacillus subtilis | Pseudomonas aeruginosa | Candida albicans
